# Measured values as given in US20130331427A1, “METHODS OF STIMULATING CELLULAR GROWTH, SYNAPTIC, REMODELING AND CONSOLIDATION OF LONG-TERM MEMORY” (Blanchette Rockefeller Neuroscience Institute, priority 2007, published 2013).
# pEC50, pKi: −log10 of the molar value. Read-outs that look alike come from different tables or passages of the source.
# What was measured:
# PKC [1] = assay: PKC affinity of bryostatin and bryologs; format: binding
# Description: Structurally, they are all similar.
# PKC [2] = conditions: cited from earlier work
# PKC [3] = conditions: [3H]phorbol dibutyrate competition; read-out: Ki for binding; cited from earlier work
# Hermissenda Crassicornis = assay: Pavlovian conditioning of Hermissenda, memory retention; format: in vivo
# Protocol: Specimens of Hermissenda Crassicornis were maintained in artificial sea water (ASW) at 15° for three days in perforated 50-ml conical centrifuge tubes before starting experiments. […] For selected experiments lactacysteine (10 μM) or anisomycin was added to the ASW.
# Pavlovian conditioning of Hermissenda involves repeated pairings of a neutral stimulus, light, with an unconditioned stimulus, orbital shaking. (See, Lederhendler et al. (24) and Epstein et al. (6)). A rotation/shaking stimulus excites the statocyst hair cells and thereby elicits an unconditioned response: a brisk contraction of the muscular undersurface called a foot, accompanied by adherence or “clinging” to the surface that supports the foot. Before conditioning, light elicits a weakly positive phototaxis accompanied by lengthening of the foot. After sufficient light-rotation pairings, light no longer elicits phototaxis, but instead elicits a new response (24): the “clinging” and foot shortening previously elicited only by the unconditional stimulus (FIG. 1). Thus, the meaning of the unconditioned stimulus, rotation or orbital shaking, has been transferred to the conditioned stimulus and is manifested by a light-elicited foot contraction—a negative change of foot length. This conditioned response to light can last for weeks, is not produced by randomized light and rotation, is stimulus-specific, and shares the other defining characteristics of mammalian Pavlovian Conditioning.
# Pavlovian conditioning of Hermissenda has well-defined training parameters that produce progressively longer-lasting retention of the learned conditioned response. Two training events (2 TE) of paired light and orbital shaking (see “Methods”), for example, induce a learned conditioned response (light-elicited foot contraction or shortening) that persists without drug treatment for approximately 7 minutes. Four to six training events (4-6 TE) induce a conditioned response that persists up to several hours, but disappears approximately by 1 day after training. Nine TE produces long-term associative memory lasting many days and often up to two weeks.
# All animals were tested with the CS alone at 4 h, then at 24-h intervals.
# NCI 60 cell line screen = conditions: cited from earlier work
# sAPP secretion = conditions: control and AD fibroblasts; cited from earlier work
# calexcitin = calexcitin immunostaining in Hermissenda B-photoreceptors; format: in vivo
# Protocol: Following experimental treatments and testing, animals were rapidly decapitated, the central nervous systems (CNS) removed and then fixed in 4% para-formaldehyde in 20 mM Tris-buffered (pH 8) natural seawater (NSW; 0.2 μm micropore-filtered). The CNSs were then embedded in polyester wax (20), sectioned (6 μm) and immunostained using a biotinylated secondary antibody coupled to avidin-bound microperoxidase (ABC method, Vector), Aminoethylcarbazole (AEC) was used as the chromogen. The primary polyclonal antibody (designated 25U2) was raised in rabbits from the full length calexcitin protein extracted from squid optic lobes. Gray-scale intensity measures were done from digital photomicrographs on circumscribed cytoplasmic areas of the B-photoreceptors minus the same background area (non-staining neuropile).
# Micrographs (A, B) depict representative tissue sections from Hermissenda eyes that were immunolabeled with the calexcitin polyclonal antibody, 25U2. […] Differences in staining intensities were measured and recorded as gray-scale intensities (0-256; B-cell cytoplasm minus tissue background).
# Rat IGF-IR cells = assay: overall protein synthesis, [35S]methionine incorporation; conditions: PKC inhibitor also present
# Protocol: [^35S]Methionine (9.1 μCi) was then added to the medium followed by analysis of radiolabel.
# protein kinase C = conditions: (−)-enantiomer; cited from earlier work
# CA1 neurons = assay: acute hippocampal slices, number of dendritic spines (spinophilin); format: cell-based; conditions: PKC blocker
# PKCε = molecular target: T1, PKCε (Homo sapiens, UniProt Q02156); conditions: cited from earlier work
# T1 sequence (Q02156 1-737): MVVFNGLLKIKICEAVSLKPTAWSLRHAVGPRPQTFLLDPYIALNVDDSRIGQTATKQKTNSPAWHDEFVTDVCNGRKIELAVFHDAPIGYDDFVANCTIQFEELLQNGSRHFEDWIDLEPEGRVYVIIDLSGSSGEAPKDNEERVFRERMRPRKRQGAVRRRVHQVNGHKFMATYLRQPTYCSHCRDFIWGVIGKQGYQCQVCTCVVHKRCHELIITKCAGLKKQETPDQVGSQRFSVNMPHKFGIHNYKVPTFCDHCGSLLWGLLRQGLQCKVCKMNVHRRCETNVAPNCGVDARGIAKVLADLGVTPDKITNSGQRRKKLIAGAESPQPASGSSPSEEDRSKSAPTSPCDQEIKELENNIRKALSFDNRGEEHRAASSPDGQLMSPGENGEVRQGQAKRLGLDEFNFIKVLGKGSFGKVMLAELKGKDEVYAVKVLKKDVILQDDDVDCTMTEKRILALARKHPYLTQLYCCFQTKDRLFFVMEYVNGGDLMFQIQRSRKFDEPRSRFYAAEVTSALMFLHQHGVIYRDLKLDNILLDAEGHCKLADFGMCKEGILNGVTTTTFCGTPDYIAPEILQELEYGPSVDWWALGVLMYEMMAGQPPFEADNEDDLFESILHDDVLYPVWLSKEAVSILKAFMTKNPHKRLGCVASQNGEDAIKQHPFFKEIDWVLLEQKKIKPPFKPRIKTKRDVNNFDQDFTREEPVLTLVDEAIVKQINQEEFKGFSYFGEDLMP
# [4] = 2000 IU/day; cited from earlier work
# [5] = test system: murine leukemias and solid tumors; conditions: cited from earlier work
# PKC [6] = conditions: K562 cells; cited from earlier work
# [7] = test system: cyclin dependent kinase 2 (Cdk2); conditions: at 5 ng/ml; cited from earlier work
# PKC [8] = assay: PKC activity (histone phosphorylation) in Hermissenda nervous systems; format: in vivo; conditions: anisomycin 1.0 ng/ml with each bryostatin 0.25 ng/ml exposure, three successive days
# Protocol: Cells were homogenized by sonication (5 sec, 25 W) in 100 μl of 100 mM Tris-HCL pH 7.4 buffer containing 1 mM EGTA, 1 mM PMSF, and 50 mM NaF. Homogenate was transferred to a polyallomer centrifuge tube and was centrifuged at 100,000×g for 10 min at 4°. The supernatant was removed and immediately frozen on dry ice. The particulate fraction was resuspended by sonication in 100 μl of the same buffer and stored at −80°. To measure PKC, 10 μl of cytosol or particulate fraction was incubated for 15 min at 37° in the presence of 10 μM histones, 4.89 mM CaCl2, 1.2 μg/μl phosphatidyl-L-serine, 0.18 μg/μl 1.2-dioctanoyl-sn-glycerol, 10 mM MgCl2, 20 mM HEPES (pH 7.4), 0-8 mM EDTA, 4 mM EGTA, 4% glycerol, 8 μg/ml aprotinin, 8 μg/ml leupeptin, and 2 mM benzamidine. 0.5 μCi [γ^32-P]ATP was added and ^32P-phosphoprotein formation was measured by adsorption onto phosphocellulose as described previously (25). This assay was used with slight adjustments for either Hermissenda nervous system homogenates or cultured mammalian neuron homogenates.
# Histone phosphorylation (See “Methods”) in isolated circumesophageal nervous systems was then measured in the cytosol fraction. […] (FIG. 12, 13).
# [9] = test system: squamous cell carcinoma and melanoma; conditions: used topically; cited from earlier work
# [10] = A-ring bryologs, read-out: affinity for PKC
molecule,measurement,setting,value
CCCCCCCC(=O)O[C@H]1/C(=C/C(=O)OC)C[C@H]2C[C@H](CO)OC(=O)C[C@H](O)C[C@@H]3CCC[C@H](C[C@@H]4CCO[C@H](/C=C/C(C)(C)[C@]1(O)O2)O4)O3 [Analog 1],potency relative to bryostatin-1,PKC [1],about 100 times
same,"affinity for PKC, in words",PKC [2],highest affinity for PKC
same,pKi,PKC [2]; read-out: PKC Affin,9.60
"CC1=C[C@]23C(=O)[C@@H](C=C(COC(=O)c4ccccc4)[C@@H](O)[C@]2(O)[C@H]1OC(=O)c1ccccc1)[C@H]1[C@@H](C[C@H]3C)C1(C)C [Ingenol 3,20-dibenzoate]",pKi,PKC [3],6.62
CC(=O)N[C@@H](CSC(=O)[C@]1([C@@H](O)C(C)C)NC(=O)[C@H](C)[C@@H]1O)C(=O)O [Lactacysteine],acquisition or retention of behavioral training,"Hermissenda Crassicornis; lactacysteine 10 μM alone for 4 h, 2-paired TEs 24 hrs later",no acquisition or retention of behavioral training
same,memory after single bryostatin exposure followed by 2 TE,Hermissenda Crassicornis; lactacysteine 10 μM together with bryostatin 0.25 ng/ml for 4 h,long-term memory lasting many days
CC1=CC[C@H](C)C(C)(C)[C@@H]1/C=C/C(C)=C/CC[C@@]1(CO)[C@H](CCCO)/C(=C(/C)C=O)CC[C@]1(C)O [Iripallidal],GI50 (concentration required to inhibit growth by 50%),NCI 60 cell line screen,from micromolar to nanomolar range
CCCCCCCC(=O)OC1C(=CC(=O)OC)CC2CC(CO)OC(=O)CC(O)CCOC(CCCc3ccc(Br)cc3)CC3CCOC(C=CC(C)(C)C1(O)O2)O3 (stereo not drawn) [bryolog 5],pKi,PKC [2]; [10],8.72
CN[C@@H]1C[C@H]2O[C@@](C)([C@@H]1OC)n1c3ccccc3c3c4c(c5c6ccccc6n2c5c31)C(=O)NC4 [staurosporine],effect on benzolactam-induced sAPP secretion,sAPP secretion,eliminated the effects of benzolactam
CN(C)C[C@H]1CCn2c(c(C3=C(c4cn(C)c5ccccc45)C(=O)NC3=O)c3ccccc32)C1 [Ro-32],effect on long-term memory induction,Hermissenda Crassicornis; Ro-32 immediately after bryostatin plus training,did not prevent long-term memory induction
same,effect on 6 TE plus bryostatin,Hermissenda Crassicornis; applied pre-training during dark adaptation,blocked
same,effect on learning-specific calexcitin increases in the Type B cell,calexcitin; in vivo,prevented
same,effect on bryostatin-induced increase of protein synthesis,Rat IGF-IR cells,partially blocked
same,effect on bryostatin-induced increase of protein synthesis,Rat IGF-IR cells; listed as Ro-32-0432,increasing significantly less
"CCCCCCCCc1ccc2c3c(c[nH]c13)C[C@@H](CO)NC(=O)[C@H](C(C)C)N2C [octylindolactam V, Octylindolactam V]",pEC50,protein kinase C,7.54
CCCCCCCC(=O)O[C@H]1/C(=C/C(=O)OC)C[C@H]2C[C@H](CO)OC(=O)C[C@H](O)CCOCC[C@@H]3CCO[C@H](/C=C/C(C)(C)[C@]1(O)O2)O3 [Analog 2],"affinity for PKC, in words",PKC [2],maintains high affinity for PKC
same,pKi,PKC [2]; read-out: PKC Affin,8.19
COc1ccc2c(c[n+](C)c3c4cc5c(cc4ccc23)OCO5)c1OC [chelerythrine],effect on bryostatin-induced ELAV transport and spine increase,CA1 neurons,suppressed
"CCCCCC1CC1CC1CC1CCCCCCCC(=O)O (stereo not drawn) [DCP-LA, 2-[(2-pentylcyclopropyl)methyl]cyclopropaneoctanoic acid]",concentration of maximal effect on PKCε,PKCε,100 nM
vitamin E,cognitive abilities,[4],did not enhance cognitive abilities
same,mortality and morbidity,[4],reduced mortality and morbidity
Cn1cc(C2=C(c3cn(CCCSC(=N)N)c4ccccc34)C(=O)NC2=O)c2ccccc21 [RO-31-8220],effect on bryostatin-induced ELAV transport and spine increase,CA1 neurons,suppressed
C=C(C)[C@]12C[C@@H](COC(=O)c3ccccc3)[C@@]34OC5(O[C@@H]1[C@@H]3C1O[C@]1(CO)[C@@H](O)[C@@]1(O)[C@H]4[C@@H](C(C)CCCCCC[C@@H]5O)C(C)[C@@H]1OC(=O)c1ccccc1)O2 (stereo partly drawn) [Gnidimacrin],concentrations displaying potent antitumor activity,[5],0.1 to 1 nM
same,concentration at which it acts as a PKC activator,PKC [6],0.3 nM
same,inhibition of Cdk2,[7],100%
CCCCCCCC(=O)OC1C(=CC(=O)OC)CC2CC(CO)OC(=O)CC(O)CCOC(c3ccccc3)CC3CCOC(C=CC(C)(C)C1(O)O2)O3 (stereo not drawn) [bryolog 4],pKi,PKC [2]; [10],8.64
CCCCCCCC(=O)OC1C(=CC(=O)OC)CC2CC(CO)OC(=O)CC(O)CCOC(C(C)(C)C)CC3CCOC(C=CC(C)(C)C1(O)O2)O3 (stereo not drawn) [bryolog 3],pKi,PKC [2]; [10],8.19
COc1ccc(C[C@H]2NC[C@H](O)[C@H]2OC(C)=O)cc1 [anisomycin],effect on memory retention produced by 9 TE,"Hermissenda Crassicornis; 4 hour anisomycin treatment, no bryostatin",eliminated all memory retention
same,effect on memory from single 4 hour bryostatin exposure with 2 TE,Hermissenda Crassicornis; anisomycin 1.0 μg/ml,entirely eliminated
same,effect on long-term retention after three-day bryostatin treatments,"Hermissenda Crassicornis; anisomycin 1 μg/ml for four hours post-training, 2-TEs",did not prevent long-term retention
same,effect on calexcitin level,"calexcitin; anisomycin immediately after 2-paired TEs, 3 days of 4-hr bryostatin",did not reduce
same,"effect on PKC activity, cytosolic and membrane fractions",PKC [8],markedly reduced
C/C=C(/C)C(=O)O[C@H]1C(C)=C[C@]23C(=O)[C@@H](C=C(CO)[C@@H](O)[C@]12O)[C@H]1[C@@H](C[C@H]3C)C1(C)C [Ingenol-3-angelate],antitumor activity,[9],possesses antitumor activity
